The text below walks through data of patent US8426616B2, “Triptolide lactone ring derivatives as immunomodulators and anticancer agents” (priority 2004, dated 2013).

Structures are written as SMILES. “Also recorded” adds a separate entry of the source.

Series [1] has as its system human T cell lymphoma (Jurkat) cells. The settings on record: for cytotoxic activity (MTT assay, OD570): 24 h culture with compound; for cytotoxic activity (MTT assay), compound incubated in human serum: pre-incubation in human serum. As to the method:
Test compounds were dissolved in DMSO at a concentration of 20 mM. Further dilutions were done in RPMI1640 medium (GIBCO, Rockville, Md.) supplemented with 10% Fetal Calf Serum (HyClone Laboratories, Logan, Utah).
Cytotoxicity of the compounds was determined in a standard MTT assay using Cell Proliferation Kit I (#1 465 007, Roche Diagnostics, Mannheim, Germany). Briefly, human T cell lymphoma (Jurkat) cells (4×10^5 per well) were cultured for 24 h, in 96-well tissue culture plates, in the presence of serial three-fold dilutions of test compounds or medium containing the same concentration of DMSO as in the test samples at each dilution point. The cultures were then supplemented with 10 μl/well MTT reagent for 4 h and then with 0.1 ml/well solubilizing reagent for an additional 16 h. Optical density at 570 nm (OD570) was measured on a ThermoScan microplate reader (Molecular Devices, Menlo Park, Calif.).
The data is presented as OD570 values versus concentration of the compounds. In this case, data is provided for both compounds incubated in human serum and in mouse serum, and for PG796 without incubation.

For series [2], the system named is IL-2 production in Jurkat cells. The format is cell-based, human. Particulars: for inhibition of IL-2 production: Jurkat cells stimulated with anti-CD3 and PMA, 24 h; for inhibition of IL-2 production, compound incubated in human serum: pre-incubation in human serum. The method, then: Test samples were diluted to 1 mM in complete tissue culture medium. […] Cells from an exponentially expanding culture of Jurkat human T cell line (#TIB-152 obtained from American Type Culture Collection, Manassas, Va.) were harvested, washed once by centrifugation, re-suspended in complete tissue culture medium, and diluted to a concentration of 2×10^6 cells/ml. A volume of 50 μl of Jurkat cells (1×10^5 cells) was added to wells containing 100 μl of the diluted compounds, 50 μl of PMA (10 ng/ml) was added to each well, and the plates were incubated at 37° C. in a 5% CO2 incubator. After 24 hours, the plates were centrifuged to pellet the cells, 150 μl of supernatant was removed from each well, and the samples were stored at −20° C. The stored supernatants were analyzed for human IL-2 concentration using the Luminex 100 (Luminex Corporation, Austin, Tex.), Luminex microspheres coupled with anti-IL-2 capture antibody, and fluorochrome-coupled anti-IL-2 detection antibody. The data were expressed as pg/ml of IL-2.
The data were plotted as the concentration of compound versus IL-2 concentration. In this case, data is provided for both compounds incubated in human serum and in mouse serum, and for PG796 without incubation.

For `CC1OC(=O)C2=C1[C@@H]1C[C@@H]3O[C@@]34[C@H](O)[C@@]3(C(C)C)O[C@H]3[C@@H]3O[C@@]34[C@@]1(C)CC2` (stereo partly drawn) [PG795, 19-methyl triptolide], the “cytotoxic activity (MTT assay, OD570)” value in series [1] is “cytotoxic to Jurkat cells; also recorded: significant activity; also recorded: less active than triptolide”. Besides, the “inhibition of IL-2 production” value in series [2] is on record as “significant activity; also recorded: less active than triptolide; also recorded: inhibited IL-2 production”.

Turning to `CC(C)[C@]12O[C@H]1[C@@H]1O[C@]13[C@]1(O[C@H]1C[C@H]1c4c(C(=O)c5ccccc5)oc(OC(=O)c5ccccc5)c4CC[C@@]13C)[C@@H]2O` [PG796, 18-deoxo-19-dehydro-18-benzoyloxy-19-benzoyl triptolide], in series [1], the “cytotoxic activity (MTT assay, OD570)” value is “cytotoxic to Jurkat cells; also recorded: higher level of activity in both assays than the known prodrug, triptolide 14-succinate”; the “cytotoxic activity (MTT assay), compound incubated in human serum” value is “high, and essentially equivalent, activity”. Moreover, the “cytotoxic activity (MTT assay), compound incubated in mouse serum” value in series [1] (pre-incubation in mouse serum) is “high, and essentially equivalent, activity”. Also, the “cytotoxic activity (MTT assay), compound unincubated” value in series [1] (without serum incubation, compared with serum-incubated compound) is “nearly equivalent activity”. Further, the “inhibition of IL-2 production” value in series [2] is reported as “higher level of activity in both assays than the known prodrug, triptolide 14-succinate; also recorded: inhibited IL-2 production”. Moreover, in series [2] (Jurkat cells), the “inhibition of IL-2 production, compound incubated in human serum” value was “high, and essentially equivalent, activity”. In addition, the “inhibition of IL-2 production, compound incubated in mouse serum” value in series [2] (Jurkat cells, pre-incubation in mouse serum) is “high, and essentially equivalent, activity”. In series [2] (Jurkat cells, without serum incubation, compared with serum-incubated compound), the “inhibition of IL-2 production, compound unincubated” value is “nearly equivalent activity”.

In the case of `CC(C)[C@]12O[C@H]1[C@@H]1O[C@]13[C@]1(O[C@H]1C[C@H]1C4=C(CC[C@@]13C)C(=O)OC4)[C@@H]2OC(=O)CCC(=O)O` [triptolide 14-succinate, reference compound], in series [1], the “cytotoxic activity (MTT assay), compound incubated in human serum” value is “much less active in these assays than triptolide 14-succinate incubated in mouse serum”. Also, the “inhibition of IL-2 production, compound incubated in human serum” value in series [2] (Jurkat cells) is listed as “much less active in these assays than triptolide 14-succinate incubated in mouse serum”.
